The values below come from patent US9520611B2, “Redox flow battery” (SAMSUNG ELECTRONICS CO., LTD., priority 2013, dated 2016).

Like-named read-outs stand apart in the source and are kept apart here.

Data set [1] is described as follows: Cyclic voltammetry of organic electrolytic solution. In kind it is physicochemical. The note with it: unit inferred; Ag/Ag+ reference electrode (0.3 M AgNO3 in acetonitrile), carbon felt working electrode. From the text: For the purpose of measurement of cyclic voltammetry, a cell that includes an Ag/Ag^+ electrode prepared by dissolving 0.3 M AgNO3 in an acetonitrile solvent as a reference electrode, a carbon felt as a working electrode, and platinum as a counter electrode was used.
Referring to FIGS. 2A to 2C, the graphs of an electrolyte including a metal-ligand coordination compound show a reversible oxidation/reduction peak.

Data set [2] in a line: Solubility measurement in a non-aqueous polar solvent. It counts as physicochemical. As for the experimental part:
A density of the solution was measured and calculated in a molar concentration.

The mark [3] stands for this setting: in 50 mL acetonitrile and propylene carbonate 1:1, calculated in a molar concentration, unit not given.

For `O=S(=O)([N-]S(=O)(=O)C(F)(F)F)C(F)(F)F.O=S(=O)([N-]S(=O)(=O)C(F)(F)F)C(F)(F)F.O=[N+]([O-])c1cc2cccnc2c2ncccc12.[Fe+2].c1ccc(-c2ccccn2)nc1.c1ccc(-c2ccccn2)nc1` [Preparation Example 2, Fe^2+-(5-NO2-phenanthroline)(bpy)2 [TFSI]2], the E^0 in data set [1] turned out to be 0.72 V.

The molecule `O=S(=O)([N-]S(=O)(=O)C(F)(F)F)C(F)(F)F.O=S(=O)([N-]S(=O)(=O)C(F)(F)F)C(F)(F)F.[Fe+2].c1ccc(-c2ccccn2)nc1.c1ccc(-c2ccccn2)nc1.c1ccc(-c2ccccn2)nc1` [Preparation Example 4, Fe^2+-(bpy)3 [TFSI]2] registered an E^0 in data set [1] of 0.68 V. In turn, `Clc1cc(-c2ccccn2)nc(-c2ccccn2)c1.Clc1cc(-c2ccccn2)nc(-c2ccccn2)c1.O=S(=O)([N-]S(=O)(=O)C(F)(F)F)C(F)(F)F.O=S(=O)([N-]S(=O)(=O)C(F)(F)F)C(F)(F)F.[Fe+2]` [Preparation Example 8, Fe^2+-(4′-chloro-terpy)2 [TFSI]2] returned an E^0 in data set [1] of 0.78 V. For the same molecule, the Solubility in data set [2] (setting [3]) is given as 0.75. `Cc1ccnc(-c2cc(C)ccn2)c1.Cc1ccnc(-c2cc(C)ccn2)c1.O=S(=O)([N-]S(=O)(=O)C(F)(F)F)C(F)(F)F.O=S(=O)([N-]S(=O)(=O)C(F)(F)F)C(F)(F)F.[Fe+2].c1ccc(-c2ccccn2)nc1` [Preparation Example 1, Fe^2+-(4,4′-diMebpy)2 (bpy) [TFSI]2] registered an E^0 in data set [1] of 0.56 V. In turn, `Cc1ccnc(-c2cc(C)ccn2)c1.Cc1ccnc(-c2cc(C)ccn2)c1.Cc1ccnc(-c2cc(C)ccn2)c1.O=S(=O)([N-]S(=O)(=O)C(F)(F)F)C(F)(F)F.O=S(=O)([N-]S(=O)(=O)C(F)(F)F)C(F)(F)F.[Fe+2]` [Preparation Example 5, Fe^2+-(4,4′-diMe-bpy)3 [TFSI]2] yielded an E^0 in data set [1] of 0.43 V. Further, in data set [2], the Solubility is recorded as 0.65. As to `O=S(=O)([N-]S(=O)(=O)C(F)(F)F)C(F)(F)F.O=S(=O)([N-]S(=O)(=O)C(F)(F)F)C(F)(F)F.[Fe+2].c1ccc(-c2cccc(-c3ccccn3)n2)nc1.c1ccc(-c2cccc(-c3ccccn3)n2)nc1` [Preparation Example 7, Fe^2+-(terpy)2 [TFSI]2], in data set [1], the E^0 turned out to be 0.7 V. Further, in data set [2] (setting [3]), the Solubility is reported as 1.20. In turn, “Fe^2+-(NO2-phenanthroline)3 [TFSI]2 [Preparation Example 6]” showed an E^0 in data set [1] of 0.88 V. The molecule further showed a Solubility in data set [2] of 1020 mM. In the case of `Clc1cc(-c2ccccn2)nc(-c2ccccn2)c1.O=S(=O)([N-]S(=O)(=O)C(F)(F)F)C(F)(F)F.O=S(=O)([N-]S(=O)(=O)C(F)(F)F)C(F)(F)F.[Fe+2].c1ccc(-c2cccc(-c3ccccn3)n2)nc1` [Preparation Example 3, Fe^2+-(terpy)(4′-chloro-terpy) [TFSI]2], the E^0 in data set [1] came to 0.72 V. Besides, in data set [2], the Solubility was 1.33 and the “Solubility compared with the compounds that include identical ligands (dipole moment sum 0)” value is listed as “higher solubility”.
